Assay results from patent publication US20220275534A1, “Peptide Library Production Method” (The University of Tokyo, priority 2018, published 2022).
Positions of bridges follow the written chain, without caps; N, C: chain ends. Non-standard residues stand in square brackets, D forms with d. No end group written: not given here.

Experiments:
[1] = test system: KgpF; assay: Prenylation of translated thioether-closed artificial cyclic peptides with KgpF, MALDI-TOF-MS analysis (Examples 1-9; 37° C., 18 hours); assay type: biochemical, Microcystis aeruginosa; parameters: key to DMAPP adduct 0 / DMAPP adduct 1: 0: N/A; 1: Nothing; 2: Very weak intensity; 3: Medium intensity; 4: Strong intensity; settings: 2 mM DMAPP; for DMAPP adduct 1: MALDI-TOF-MS peak intensity of singly prenylated peptide; for DMAPP adduct 1 / DMAPP adduct 0: 160 μM KgpF; for DMAPP adduct 0: MALDI-TOF-MS peak intensity of unmodified peptide
Experimental: With regards to each of KgpF and OltF, heterogeneous co-expression of a gene synthesized after optimizing the codon of a gene derived from a producing strain was performed in Escherichia coli, followed by purification to obtain a prenylation enzyme.
The analysis was performed using UltrafleXtreme (Bruker Daltonics) or Autoflex II (Bruker Daltonics) and peptide calibration standard II (Bruker Daltonics).
In short, six kinds in total of peptides were obtained by translation and synthesis under (Conditions 1) of the artificial translation system developed by the present inventors. The peptides thus obtained were then reacted with 14.7 μM KgpF at 37° C. for 18 hours in the system shown in (Conditions 2). “DMAPP” used in (Conditions 2) is dimethylallyl pyrophosphoric acid.
(Conditions 1) • FIT system: v7s/v8.0.3 • 19aa-Met: 0.5 mM • ClAc-D or L-Trp-tRNA^fMetCUA: 90 μM • Reaction: 37° C., 60 min. • Scale: […] scale
(Conditions 2) • Translated mixture amount: 2.5 μL (mixture obtained under (Conditions 1)) • KgpF: 14.7 μM • DMAPP: 2 mM • Total amount: 15.7 μL • Reaction: 37° C., 18 hours
The YG280 sequences having the steric configuration of the N terminal Trp serving as an initiation residue of D-form and those of L-form were synthesized, so that two kinds of peptides were prepared in total. These two kinds of artificial cyclic peptides were obtained by translation and synthesis in the artificial translation system (Conditions 3) developed by the present inventors. The peptides thus obtained were then reacted with 53, 160, and 580 μM KgpF in a system shown in (Conditions 4) at 37° C. for 18 hours.
(Conditions 3) • FIT system: v7s/v8.0.3 • 19aa-Met: 0.5 mM • ClAc-D or L-Trp-tRNA^fMetCUA: 120 μM • Reaction: 37° C., 3 hours • Scale: 2.5 μL scale
(Conditions 4) • Translated mixture amount: 2.5 μL (mixture obtained under (Conditions 3)) • KgpF: 53, 160, 580 μM • DMAPP: 2 mM • Reaction: 37° C., 18 hours
The above three kinds of artificial cyclic peptides were obtained by translation and synthesis in the artificial translation system (Conditions 5) developed by the present inventors. The peptides thus obtained were then reacted with KgpF in the system shown below in (Conditions 6) at 37° C. for 18 hours.
(Conditions 5) • FIT system: v7s/v8.0.3 • 19aa-Met: 0.5 mM • ClAc-D or L-Trp-tRNA^fMetCUA: 90 μM • Reaction: 37° C., 60 min. • Scale: 2.5 μL scale
(Conditions 6) • Translated mixture amount: 2.5 μL (mixture obtained under (Conditions 5)) • KgpF: 160 or 580 μM • DMAPP: 2 mM • Reaction: 37° C., 18 hours
The above six kinds of artificial cyclic peptides were obtained by translation and synthesis in the artificial translation system (Conditions 7) developed by the present inventors. The peptides thus obtained were then reacted with 160 μM KgpF in the system shown in (Conditions 8) at 37° C. for 18 hours.
(Conditions 7) • FIT system: v7s/v9.1 • 19aa-Met: 0.5 mM • ClAc-D-Tyr-tRNA^fMetCUA: 90 μM • Reaction: 37° C., 60 min. • Scale: 2.5 μL scale
(Conditions 8) • Translated mixture amount: 2.5 μL (mixture obtained under (Conditions 7)) • KgpF: 160 μM • DMAPP: 2 mM • Reaction: 37° C., 18 hours
The above three kinds of artificial cyclic peptides were obtained by translation and synthesis in the artificial translation system (Conditions 9) developed by the present inventors. The peptides thus obtained were then reacted with 160 μM KgpF in the system shown in (Conditions 10) at 37° C. for 18 hours.
(Conditions 9) • FIT system: v7s/v9.1 • 19aa-Met: 0.5 mM • ClAc-D-Tyr-tRNA^fMetCUA: 90 μM • Reaction: 37° C., 60 min. • Scale: 2.5 μL scale
(Conditions 10) • Translated mixture amount: 2.5 μL (mixture obtained under (Conditions 9)) • KgpF: 160 μM • DMAPP: 2 mM • Reaction: 37° C., 18 hours
The above artificial cyclic peptides were obtained by translation and synthesis in the artificial translation system (Conditions 11) developed by the present inventors. […]

[2] = test system: KgpF v 3.1; assay: Prenylation of artificial cyclic peptides with 10 μM KgpF v 3.1 (Example 11; Table 7); assay type: biochemical, Microcystis aeruginosa; parameters: key: 5: strong intensity; 4: medium intensity; 3: weak intensity; 2: very weak intensity; 1: no peak; N/A: not observed; settings: KgpF v 3.1 10 μM
Experimental: Reaction of the artificial cyclic peptide shown in Table 7 was made under conditions similar to (Conditions 11) and (Conditions 12) except that v8s/v11.1 was used as FIT system, KgpF v 3.1 was used as a prenylation modification enzyme, and the concentration of the KgpF v 3.1 was set at 10 μM. Here, KgpF v 3.1 is an enzyme having a higher purification degree and more improved specific activity than KgpF used under (Conditions 12).

[3] = test system: OltF; assay: Prenylation of Trp present at N terminal with OltF (Example 23); assay type: biochemical, Planktothrix; settings: 100 μM OltF, 2.1 mM DMAPP, 37° C., 18 hours (FIG. 19, FIG. 20)
Experimental: The cyclic peptide shown below was obtained by translation and synthesis under the following (Conditions 32) in the artificial translation system developed by the present inventors. The translated mixture thus obtained was then reacted (prenylated) under the following (Conditions 33).
(Conditions 32) • 19aa-mix (19 kinds of proteinogenic amino acids other than M)]: 0.5 mM • ClAc-D-Tyr-tRNA^fMetCUA: 50 μM • Reaction: 37° C. and 30 minutes in an artificial translation-system solution. • Scale: 2.5 μL scale
(Conditions 33) • Translated mixture amount: 2.5 μL (mixture obtained under (Conditions 32)) • OltF: 100 μM • DMAPP: 2.1 mM • Reaction: 37° C., 18 hours • Scale: 5.7 μL scale

OltF, sequence (as listed by the source): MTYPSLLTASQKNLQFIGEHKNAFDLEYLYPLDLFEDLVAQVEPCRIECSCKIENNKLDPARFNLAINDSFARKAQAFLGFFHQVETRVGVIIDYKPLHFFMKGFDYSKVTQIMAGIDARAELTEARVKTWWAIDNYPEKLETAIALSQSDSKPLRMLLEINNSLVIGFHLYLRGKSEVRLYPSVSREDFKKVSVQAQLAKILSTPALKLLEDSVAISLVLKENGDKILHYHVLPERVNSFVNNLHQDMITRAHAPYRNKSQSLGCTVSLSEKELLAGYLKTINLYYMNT
KgpF, sequence (as listed by the source): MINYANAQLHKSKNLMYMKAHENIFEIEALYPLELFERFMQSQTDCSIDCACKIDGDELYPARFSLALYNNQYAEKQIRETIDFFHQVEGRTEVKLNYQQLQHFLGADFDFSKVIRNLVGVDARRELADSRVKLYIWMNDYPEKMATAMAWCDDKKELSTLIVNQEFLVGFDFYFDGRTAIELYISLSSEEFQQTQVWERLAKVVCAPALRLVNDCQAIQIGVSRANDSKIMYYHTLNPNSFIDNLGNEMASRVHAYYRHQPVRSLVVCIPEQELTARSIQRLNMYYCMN

YG304-YG280(FFWFF): artificial cyclic peptide, template YLNGDFFWFFPC (SEQ ID NO 246) ({CH2CO}-[dY]LNGDFFWFFPC; thioether N-12)
DMAPP adduct 1 [1]: 3 | DMAPP adduct 0 [1]: 4

YG290-CM11: peptide having no Trp residue in the peptide chain (random region) (Ac-[dW]CDVSGRFGYFPC; thioether (positions not given here); also: thioether ring to Cys2 or Cys13)
prenylation modification with KgpF (MALDI-TOF-MS) ([1]; Example 3: 160 or 580 μM KgpF): no modified product was found

YG298: YG280 mutant having only the N-terminal Trp residue remained ({CH2CO}-[dW]LNGDNNYSTPC; thioether N-12)
prenylation modification with KgpF (MALDI-TOF-MS) ([1]; Example 3: 160 or 580 μM KgpF): no modified product was found

YG297-aMD4: cyclic peptide obtained by translation and synthesis ({CH2CO}-[dY]RQFNRRTHEVWNLDC; thioether N-16 (inferred))
Peak intensity, The number of prenyl groups added 0 [2]: 1 | Peak intensity, The number of prenyl groups added 1 [2]: 5 | prenylation modification with KgpF (MALDI-TOF-MS) ([1]; Examples 4-7: 160 μM KgpF): modified with a prenyl group

YG292-PaktiL5: cyclic peptide obtained by translation and synthesis ({CH2CO}-[dY]IRRPWVPIIYLGC; thioether N-14 (inferred))
Peak intensity, The number of prenyl groups added 0 [2]: 1 | Peak intensity, The number of prenyl groups added 1 [2]: 5 | prenylation modification with KgpF (MALDI-TOF-MS) ([1]; Examples 4-7: 160 μM KgpF): modified with a prenyl group

AY020: cyclic peptide containing a Trp at N terminal position, SEQ ID NO: 377 (WSNRERGSDDDAGGPC; also: cyclic)
prenylation modification with OltF (MALDI-TOF-MS) [3]: Trp at the N terminal position was prenylated

AY015: cyclic peptide containing a Trp at N terminal position, SEQ ID NO: 372 (WSNFRIARYSNSSC; also: cyclic)
prenylation modification with OltF (MALDI-TOF-MS) [3]: Trp at the N terminal position was prenylated

YG300-CM11(RFG > NWS): artificial cyclic peptide, template YCDVSGNWSYPC (SEQ ID NO 239)
DMAPP adduct 1 [1]: 4 | DMAPP adduct 0 [1]: 2

AY019: cyclic peptide containing a Trp at N terminal position, SEQ ID NO: 376 (WSNVSGRAGYFPC; also: cyclic)
prenylation modification with OltF (MALDI-TOF-MS) [3]: Trp at the N terminal position was prenylated

AY018: cyclic peptide containing a Trp at N terminal position, SEQ ID NO: 375 (WNNRERGSDDDAGGPC; also: cyclic)
prenylation modification with OltF (MALDI-TOF-MS) [3]: Trp at the N terminal position was prenylated

YG289-S2iD7: cyclic peptide obtained by translation and synthesis ({CH2CO}-[dY]HDYRIWRYHTYPC; thioether N-14 (inferred))
Peak intensity, The number of prenyl groups added 0 [2]: 1 | Peak intensity, The number of prenyl groups added 1 [2]: 5 | prenylation modification with KgpF (MALDI-TOF-MS) ([1]; Examples 4-7: 160 μM KgpF): modified with a prenyl group

AY017: cyclic peptide containing a Trp at N terminal position, SEQ ID NO: 374 (WCDVSGRAGYFPC; also: cyclic)
prenylation modification with OltF (MALDI-TOF-MS) [3]: Trp at the N terminal position was prenylated

AY016: cyclic peptide containing a Trp at N terminal position, SEQ ID NO: 373 (WHDYRIARYHTYPC; also: cyclic)
prenylation modification with OltF (MALDI-TOF-MS) [3]: Trp at the N terminal position was prenylated
